From US8765698B2, “Methods and products for reawakening retrocyclins” (priority 2010, dated 2014)

Key:
HIV-1 BaL = experiment: Luciferase-based infection assay to determine anti-HIV-1 activity; format: cell-based; conditions: for HIV-1 infection of aminoglycoside-treated TZM-bl cells: HIV-1 BaL, 24 hr, compared to untreated cells
Protocol: Treatments were then removed and the infection was quantified by measuring luciferase using Bright-Glo reagents (Promega, Madison, Wis.) in an LMax luminometer (Molecular Devices, Sunnyvale, Calif.). Cytotoxicity and metabolic activity of cells were verified by a tetrazolium-based MTT assay (R& D systems, Minneapolis, Minn.) performed on identically treated cells.
For antibody-mediated neutralization experiments, TZM-bl cells (4000 cells/well; 96 well plate) were cultured in D10^− medium and treated with vehicle (PBS) or 10 μg/ml of tobramycin for 24 hr. The next day, cells were treated with either rabbit preimmune or anti-retrocyclin serum diluted 1:10 in D10^− medium containing tobramycin or RC-100 (2.5 μg/ml). Two hours later the cells were infected with HIV-1 BaL (p24 of 5 ng/ml) at 37° C. for 24 hr. Viral infection was quantified as described above.

[1] = system: premature termination codon of retrocyclin cDNA; experiment: Aminoglycoside mediated read-through of termination codon, luciferase fusion construct in HOS-CD4-CCR5 cells; format: cell-based, human; conditions: 10 μg/ml, 24 hr, luciferase normalized to renilla
Protocol: Wildtype and mutant retrocyclin cDNAs were subcloned into phCMV-luc-FSR vector to create unrescued RC-101 and rescued RC-101 C-terminal luciferase fusion constructs, and verified by sequencing. HOS-CD4-CCR5 cells were cultured in antibiotic free growth medium (D10^−) and co-transfected with 0.5 μg of unrescued or rescued (positive control) RC-101 plasmids along with 0.1 μg of phRL-CMV vector (transfection control containing renilla luciferase gene) using Effectene transfection reagent (Qiagen, Valencia, Calif.). The next day cells were treated for 24 hr with the appropriate aminoglycoside (40 μg/ml amikacin or 5 μg/ml gentamicin or 10 μg/ml tobramycin) or D10^− for control cells. Read-through was determined by measuring luciferase and renilla levels using a dual luciferase assay (Promega Corp., Madison, Wis.).

[2] = system: Cervicovaginal tissues (EpiVaginal); experiment: LDH cytotoxicity assay on organotypic cervicovaginal tissue; format: cell-based, human; conditions: 10 μg/ml, 24 hr
Protocol: (§1) Cervicovaginal tissues were treated topically with 100 μl of PBS (control; n=4) or with 10 μg/ml of tobramycin (n=8) for 24 hr. Viability was assessed on control and tobramycin-treated tissue (n=1) using MTT assay kit (MatTek Corp., Ashland, Mass.). Cytotoxicity was measured by quantifying lactate dehydrogenase (LDH) activity in the underlying medium collected 24 hr after treatment with PBS or tobramycin by using CytoTox96 non-radioactive cytotoxicity assay kit (Promega Corp., Madison, Wis.).

[3] = system: Cervicovaginal tissues (EpiVaginal); experiment: MTT assay on organotypic cervicovaginal tissue; format: cell-based, human; conditions: one tissue, data not shown
Protocol: as §1

retrocyclin polypeptides = experiment: Retrocyclin expression in cervicovaginal tissues, RP-HPLC, immuno-dotblot and immunostaining; format: cell-based, human
retrocyclin peptides = experiment: Immunostaining of aminoglycoside-treated TZM-bl cells with anti-retrocyclin antibody; format: cell-based; conditions: 10 μg/ml, 24 hr
Excerpt: The coverslips were then processed for immunofluorescence staining with anti-retrocyclin (rabbit anti-RC-101 antibody) or pre-immune serum as described above.

Compound | HIV-1 infection of aminoglycoside-treated TZM-bl cells (HIV-1 BaL) | infection, preimmune serum compared to anti-retrocyclin antibodies (HIV-1 BaL; TZM-bl cells, tobramycin 10 μg/ml for 24 hr, then serum, HIV-1) | increase in read-through [1] | tissue cytotoxicity (LDH activity in underlying medium) [2] | metabolic activity of tissue (MTT assay) [3] | amount of retrocyclin polypeptides expressed in treated cervicovaginal tissues (retrocyclin polypeptides; 10 μg/ml tobramycin, estimated by densitometry of immuno-dotblot) | anti-retrocyclin immunohistochemical staining of cervicovaginal tissue (retrocyclin polypeptides; applied apically, 24 hr) | anti-retrocyclin immunostaining of TZM-bl cells (retrocyclin peptides)
gentamicin | inhibited HIV-1 infection |  |  |  |  |  |  | 
NC[C@H]1O[C@H](O[C@H]2[C@H](O)[C@@H](O[C@H]3O[C@H](CO)[C@@H](O)[C@H](N)[C@H]3O)[C@H](N)C[C@@H]2N)[C@H](N)C[C@@H]1O [tobramycin] | inhibited HIV-1 infection | modest yet significant reduction in infection | 26 fold | not cytotoxic | did not affect the metabolic activity adversely | approximately 1.6 μg/tissue | brightly stained cells | brightly stained cells
